The values below come from patent US20240295566A1, “METHOD FOR DIAGNOSING AND TREATING METABOLIC DISORDERS” (Centre for Chinese Herbal Medicine Drug Development Limited, priority 2023, published 2024).

Each structure is given as a SMILES string.

Series [1] can be described thus: Oral glucose tolerance test (OGTT) in mice. It is filed as in vivo, mouse. Conditions: for glucose tolerance in control mice (OGTT): control mice without tryptamine, inhibitor alone; for tryptamine-induced glucose intolerance (OGTT): tryptamine (10 mg/kg)-treated mice plus inhibitor i.p. (U0126 20 mg/kg, PD98059 10 mg/kg, EPPTB 10 mg/kg); for glucose tolerance (OGTT): normal mice, substance given alone (tryptamine 0.4, 2, 10 mg/kg; phenethylamine 1, 2, 5 mg/kg i.p.). On the procedure:
(§1) For the oral glucose tolerance test (OGTT), mice were fasted for 12 hours (overnight) and administered with tryptamine, ERK inhibitors, TAAR1 antagonist or IAA at indicated dosages. After 30 min, mice were given glucose at a dosage of 2 g/kg. Blood samples were collected from the tail vein for glucose measurement using Accu-Chek glucose meters at 0, 15, 30, 60, 90 and 120 min after the glucose challenge. For the insulin tolerance test (ITT), mice were fasted for 4 hours and administered with tryptamine, ERK inhibitors or a TAAR1 antagonist at indicated dosages. After 30 min, insulin (1 U/kg) was injected intraperitoneally into the mice. Blood glucose levels were measured as per OGTT. For the measurement of serum insulin and TG, serum was collected 120 min after the mice were treated with tryptamine.

For series [2], the system named is insulin-induced AKT phosphorylation. Nature of the series: Western blot of insulin signaling (AKT phosphorylation) in 3T3-L1 cells. In kind it is cell-based. Conditions: insulin 20 nM; for inhibitory effects of tryptamine and phenethylamine on insulin-stimulated AKT phosphorylation / insulin-induced AKT phosphorylation: 3T3-L1 cells; for inhibitory effects of tryptamine and phenethylamine on insulin-stimulated AKT phosphorylation: tryptamine or phenethylamine 25 μM, inhibitor 20 μM; for insulin-induced AKT phosphorylation: precursors and metabolites at 100 μM; for insulin signaling: 3T3-L1 adipocytes, 25 μM. On the procedure:
(§2) For the glucose uptake assay, 3T3-L1 cells were serum- and glucose-starved for 3 hours and then incubated with glucose, FBS, insulin and tryptamine for 30 min as indicated. To assess the effect of tryptamine on insulin signaling, 3T3-L1 cells were pre-treated with or without tryptamine, ERK inhibitor or TAAR1 antagonist EPPTB, and then treated with insulin at the indicated concentration. The effect of IAA on insulin signaling was evaluated by treating 3T3-L1 cells with or without IAA followed by insulin for the indicated times. Tryptamine, U0126 and EPPTB were dissolved in DMSO at 100 mM as a stock solution. For cAMP measurements, 3T3-L1 cells were pre-treated with or without EPPTB for 60 min and then treated with tryptamine for the indicated times.
(§3) Frozen tissues and harvested cells were lysed in RIPA buffer with a protease inhibitor cocktail. For western blotting, the cell lysates and tissue lysates were centrifuged at 15,000 rpm for 15 min at 4° C. The supernatant was mixed with 5× loading buffer and heated at 98° C. on a dry bath for 10 min. The target proteins were then detected in the samples as per manufacturer instructions. The blots were incubated with HRP-linked anti-rabbit IgG or anti-mouse IgG and reacted with enhanced chemiluminescence. The quantification of protein bands from western blots was analyzed using Image J.
For orientation: Immunoblotting shows a protein as a band on a membrane.

Series [3] is described as follows: Insulin tolerance test (ITT) in mice. It is filed as in vivo, mouse. As to conditions: for insulin sensitivity in control mice (ITT): control mice without tryptamine, inhibitor alone; for tryptamine-induced insulin resistance (ITT): tryptamine (10 mg/kg)-treated mice plus inhibitor i.p. (U0126 20 mg/kg, PD98059 10 mg/kg, EPPTB 10 mg/kg); for insulin sensitivity (ITT): normal mice, substance given alone (tryptamine 0.4, 2, 10 mg/kg; phenethylamine 1, 2, 5 mg/kg i.p.). How it is done: as §1

Series [4] has as its system ERK1/2 phosphorylation. Nature of the series: Western blot of ERK activation in WAT, liver and skeletal muscle lysates from mice. As to conditions: for tryptamine-induced ERK phosphorylation in tissues: tryptamine 10 mg/kg plus inhibitor (U0126 20 mg/kg or EPPTB 10 mg/kg), WAT and liver lysates. In kind it is in vivo, mouse. How it is done:
as §3

Series [5] has as its system ERK1/2 phosphorylation. Nature of the series: Western blot of ERK activation in 3T3-L1 cells. In kind it is cell-based. Conditions: for ERK phosphorylation induced by tryptamine and phenethylamine: tryptamine or phenethylamine 25 μM, pre-treatment with inhibitor 20 μM; for ERK1/2 phosphorylation: 25 μM. On the procedure:
as §2, with “3T3-L1 adipocytes (ATCC CL-173) were cultured and maintained in DMEM with 10% (v/v) FBS. For the” for “For the”
as §3

Series [6] concerns insulin-induced Akt phosphorylation. The series can be described thus: Western blot of insulin-stimulated AKT phosphorylation in WAT, liver and skeletal muscle lysates from mice. In kind it is in vivo, mouse. Conditions: insulin 1 U/kg; for inhibitory effects of tryptamine on insulin-stimulated AKT phosphorylation in tissues: tryptamine 10 mg/kg plus inhibitor (U0126 20 mg/kg or EPPTB 10 mg/kg), WAT and liver lysates; for insulin-induced Akt phosphorylation in major metabolic tissues: WAT, liver, skeletal muscle, tryptamine 10 mg/kg or phenethylamine 5 mg/kg i.p. On the procedure: as §3

For series [7] the following is noted: mouse, in vivo, 15 min.
Description: (§4) Tryptamine at a dosage of 5 mg/kg (dissolved in 0.5% CMC-Na) was orally administered to mice. After 15 min, mice were euthanized by isoflurane and sacrificed by cervical dislocation. Serum, liver, skeletal muscle and WAT were collected and stored at −80° C. until analysis. About 80 mg of biological tissues were extracted with a 20× volume of 70% methanol (m/v) and then homogenized with steel beads. The samples were then centrifuged at 14,000 rpm at 4° C. for 15 min. About 200 μL of the supernatant was transferred to new tubes for LC-MS analysis.
Series [8] is described as follows: Serum TG level in mice. It is filed as in vivo, mouse. As to conditions: normal mice, i.p. On the procedure:
as §1

Series [9] concerns 3T3-L1 adipocytes. Nature of the series: Glucose uptake assay in 3T3-L1 cells. In kind it is cell-based. As to conditions: 5, 10 and 25 μM. On the procedure: as §2, with “3T3-L1 adipocytes (ATCC CL-173) were cultured and maintained in DMEM with 10% (v/v) FBS. For the” for “For the”
Series [10] in a line: Intravenous glucose tolerance test (IVGTT) in monkeys. In kind it is in vivo, Macaca fascicularis. Conditions: normal monkeys, single dose 10 mg/kg via oral gavage.
Series [11] can be described thus: Serum insulin level in monkeys. In kind it is in vivo, Macaca fascicularis. Conditions: normal monkeys, single dose 10 mg/kg via oral gavage. How it is done: The first crab-eating macaques (Macaca fascicularis) metabolomics study is performed with ethics approval (No. YMB1704) by Yunnan Yinmore Biotechnology company (Kunming, China). The diagnosis of diabetes for monkeys was based on published criteria. Specifically, age-matched (10-23 years old) monkeys were categorized as normal (Define as FBG<75 mg/dL and Hb1Ac<3.5%), pre-diabetes (FBG 80-130 mg/dL and Hb1Ac 4.0%-6.0%) and diabetes (FBG>130 mg/dL and Hb1Ac>6.0%) (n=26 for each group). Biological samples including serum and feces were collected and stored at −80° C. until analysis. The second crab-eating macaques (n=5) intervention study is performed with ethics approval (No. HZ2021047) by Huazhen Biosciences company (Guangzhou, China). Biochemical parameters including OGTT and serum insulin level were measured before and after tryptamine treatment. No crab-eating macaques were treated with anti-diabetic medication during these studies.
To understand the role of tryptamine and phenethylamine in the pathophysiology of insulin resistance, tryptamine and phenethylamine were administered to normal mice within the pathophysiological range detected in the fecal samples of T2D subjects. […]

The test system of series [12] is insulin signaling-related proteins. The series can be described thus: Phospho-proteomics study of mouse tissue. It is filed as in vivo. Conditions: mice, insulin-sensitive tissues (WAT), tryptamine treatment. How it is done: Mice were fasted for 4 hours and orally administered with tryptamine or vehicle. The WAT tissues were collected for the phosphoproteomics study. Mice tissue samples used for the TMT-labeled phosphoproteomics study were prepared as previously reported. An Easy nLC system (Thermo Fisher Scientific) with an Acclaim PepMap RSLC column (50 μm×15 cm) was used to separate the TMT-labelled peptides. The mobile phase used in LC-MS-Orbitrap was A: water with 0.1% formic acid and B: 80% acetonitrile, 20% water with 0.1% formic acid. The elution gradient was set as 0-5 min in 0-6% buffer B, 5-45 min in 6-28% buffer B, 45-50 min in 28%-38% buffer B, 50-55 min 38-100% buffer B and maintained during […] in 100% buffer B. The obtained MS/MS spectra were processed by Proteome Discoverer (Thermo Fisher Scientific) and searched using MASCOT engine 2.6. All protein sequences were aligned to the Mus musculus database downloaded from UniProt (http://www.uniprot.org). The proteins with a fold change>1.2 or <0.8 and a p-value<0.05 were considered as differentially expressed proteins.

Series [13] is described as follows: Tissue distribution of tryptamine. As to conditions: mice, oral gavage of tryptamine 5 mg/kg, within 15 min.
Description: as §4
Where [14] appears, read: antibiotics-treated mice colonized with R. gnavus ATCC 29149, EPPTB 10 mg/kg i.p.

With `CCOc1cccc(NC(=O)c2ccc(N3CCCC3)c(C(F)(F)F)c2)c1` [EPPTB, N-(3-ethoxy-phenyl)-4-pyrrolidin-1-yl-3-trifluoromethyl-benzamide], the “R. gnavus-induced impaired glucose tolerance (OGTT)” value in series [1] (setting [14]) is “partially abrogated”. Moreover, in series [1], the “glucose tolerance in control mice (OGTT)” value is reported as “did not affect” and the “tryptamine-induced glucose intolerance (OGTT)” value was “significantly reduced”. In [2], the “inhibitory effects of tryptamine and phenethylamine on insulin-stimulated AKT phosphorylation” value is “reversed the inhibitory effects”. Also, the “R. gnavus-induced lower insulin sensitivity (ITT)” value in series [3] (setting [14]) is “partially abrogated”. In series [3], the “insulin sensitivity in control mice (ITT)” value is listed as “did not affect” and the “tryptamine-induced insulin resistance (ITT)” value was “significantly reduced”. Besides, in [4], the “tryptamine-induced ERK phosphorylation in tissues” value is on record as “downregulated”. Also, the “ERK phosphorylation induced by tryptamine and phenethylamine” value in series [5] is reported as “significantly downregulated”. In addition, in series [6], the “inhibitory effects of tryptamine on insulin-stimulated AKT phosphorylation in tissues” value was “abolished the inhibitory effects”.

In the case of `COc1cccc(-c2cc(=O)c3ccccc3o2)c1N` [PD98059], in series [1], the “glucose tolerance in control mice (OGTT)” value is recorded as “negligible effects” and the “tryptamine-induced glucose intolerance (OGTT)” value is “significantly improved”. Besides, in series [3], the “insulin sensitivity in control mice (ITT)” value is on record as “negligible effects” and the “tryptamine-induced insulin resistance (ITT)” value is “significantly improved”.

Take `N#CC(=C(/N)Sc1ccccc1N)/C(C#N)=C(\N)Sc1ccccc1N` [U0126]: in [1], the “glucose tolerance in control mice (OGTT)” value is “negligible effects” and the “tryptamine-induced glucose intolerance (OGTT)” value is listed as “significantly improved”. For the same compound, in [2], the “inhibitory effects of tryptamine and phenethylamine on insulin-stimulated AKT phosphorylation” value was “significantly suppressed the inhibitory effects”. In [3], the “insulin sensitivity in control mice (ITT)” value is given as “negligible effects” and the “tryptamine-induced insulin resistance (ITT)” value was “significantly improved”. Also, in series [4], the “tryptamine-induced ERK phosphorylation in tissues” value is “significantly downregulated”. For the same compound, the “ERK phosphorylation induced by tryptamine and phenethylamine” value in [5] is listed as “blocked”. Besides, in [6], the “inhibitory effects of tryptamine on insulin-stimulated AKT phosphorylation in tissues” value is recorded as “abolished the inhibitory effects”.

Regarding `O=C(O)Cc1c[nH]c2ccccc12` [indole-3-acetic acid], the “IAA concentration relative to that of tryptamine in serum” value in series [7] is 40-100 fold. In addition, in series [1], the “glucose tolerance (OGTT)” value is reported as “did not impair”. For the same compound, the “insulin-induced AKT phosphorylation” value in [2] is listed as “did not alter”. In addition, the “insulin sensitivity (ITT)” value in series [3] was “did not impair”.

Consider `NCCc1ccccc1` [phenethylamine], for which the “serum TG levels” value in [8] is listed as “significant elevation”. In addition, the “glucose tolerance (OGTT)” value in series [1] was “remarkably inhibitory effects”. Moreover, in series [2], the insulin signaling entry is “inhibited insulin signaling in a time-dependent manner”. For the same compound, the “insulin sensitivity (ITT)” value in series [3] is recorded as “remarkably inhibitory effects”. The ERK1/2 phosphorylation result in series [5] is given as “induced ERK1/2 phosphorylation in a time-dependent manner”. Further, the “insulin-induced Akt phosphorylation in major metabolic tissues” value in series [6] is on record as “significantly suppressed”.

For `O=C(O)Cc1ccccc1` [phenylacetic acid], the “insulin-induced AKT phosphorylation” value in series [2] is listed as “did not alter”.

Turning to `N[C@@H](Cc1ccccc1)C(=O)O` [phenylalanine], in series [2], the “insulin-induced AKT phosphorylation” value is recorded as “did not alter”.

Regarding `NCCc1c[nH]c2ccccc12` [tryptamine], the “serum TG levels” value in [8] is “significant elevation”. For the same compound, the basal glucose uptake entry in series [9] is listed as “inhibited basal glucose uptake in a dose-dependent manner”. The “blood glucose levels in the glucose challenge (IVGTT)” value in [10] was “higher blood glucose levels”. The “glucose tolerance (OGTT)” value in series [1] is recorded as “remarkably inhibitory effects”. The insulin signaling result in series [2] was “inhibited insulin signaling in a time-dependent manner”. The “insulin sensitivity (ITT)” value in [3] is on record as “remarkably inhibitory effects”. Moreover, the “ERK1/2 phosphorylation in insulin-sensitive tissues” value in [4] (tryptamine 10 mg/kg i.p., WAT, liver, skeletal muscle) is recorded as “upregulated”. Moreover, the ERK1/2 phosphorylation result in [5] is reported as “induced ERK1/2 phosphorylation in a time-dependent manner”. Also, the serum insulin levels result in series [11] is reported as “significant elevation”. The “insulin signaling-related phospho-proteins (HSL, ERK, SH3D5)” value in series [12] was “upregulated”. Also, in series [6], the “insulin-induced Akt phosphorylation in major metabolic tissues” value is “significantly suppressed”. The “metabolite indole-3-acetic acid (IAA) levels in serum and insulin-sensitive tissues” value in series [13] is “significantly increased”. For the same compound, the “tryptamine levels in serum and insulin-sensitive tissues” value in [13] (serum, WAT, liver, skeletal muscle) is “significantly increased”.

Regarding `N[C@@H](Cc1c[nH]c2ccccc12)C(=O)O` [tryptophan], the “insulin-induced AKT phosphorylation” value in series [2] is on record as “did not alter”.
